From US20260199284A1, “SPECIFIC VASH COMPOUNDS (SVC) INHIBITORS FOR HEART DISEASES” (MT ACT, priority 2023, published 2026)
“Also recorded” adds a separate entry of the source.

Tests used:
[1] = tested on: cardiomyocytes of obese ZSF1 rats; assay: Unloaded shortening contractility of HFpEF myocytes; assay type: cell-based, rat; settings: 30-weeks aged obese ZSF1 rats, 2-hours treatment
Experimental: FIG. 16: Improved contraction and relaxation kinetics of HFpEF myocytes during unloaded shortening upon VASH inhibition or TTL overexpression in primary cardiomyocytes isolated from WKY, ZSF1-Lean, or ZSF1 Obese rats. A) Contraction amplitude, B) contraction time, and C) relaxation time in isolated rat cardiomyocytes. n=~90 myocytes per group from N=3 ZSF1 Lean or Obese rats; n=60 myocytes from N=2 WKY rats. Two-way ANOVA with factors of genotype and treatment.
(§1) Contractility was measured in a custom-fabricated cell chamber (IonOptix) mounted on an LSM Zeiss 880 inverted confocal microscope using either a 40 or 63× oil 1.4 numerical aperture objective and transmitted light camera (IonOptix MyoCam-S). Experiments were conducted at room temperature and field stimulation was provided at 1.0 Hz with a cell stimulator (MyoPacer, IonOptix). After 10-30 seconds of pacing to achieve steady state, five traces were recorded and analyzed. Sarcomere length was measured optically by Fourier transform analysis (IonWizard, IonOptix).

[2] = tested on: ZSF-1 Obese cardiomyocyte; assay: Immunofluorescence of detyrosinated and tyrosinated tubulin in ZSF1 cardiomyocytes; assay type: cell-based, rat; settings: 2 hr 37 C incubation
Experimental: Cells were fixed in 4% PFA (Electron Microscopy Sciences) for 10 minutes, washed 3 times with PBS and permeabilized in 0.1% TritonX-100 for 10 minutes at room temperature. After washing twice with PBS, cells were placed in blocking buffer (1:1 Seablock (Abcam) and 0.1% TritonX-100 (Bio-Rad) in PBS) for at least 1 hour at room temperature, then labeled with primary antibodies (see below) for 24-48 hours at 4° C. Cells were then washed three times in TBS, then labeled with secondary antibodies (see below) in TBS at room temperature for 2-4 hours and washed a final two times with TBS. Stained cells were mounted on #1.5 coverslips in Prolong Diamond Antifade Mountant (Thermo Fisher) for imaging. Alternatively, cells were imaged directly in chambers with TBS. Imaging was carried out on a Zeiss 880 Airyscan confocal microscope operating on an Axiovert Z1 inverted microscope equipped with a Plan-Apochromat 63× oil 1.4 NA objective. Image analysis was performed using ZEN Black software for Airyscan processing, which involves signal integration from the 32 separate sub-resolution detectors in the Airyscan detector and subsequent deconvolution of this integrated signal.

[3] = tested on: primary cardiomyocytes isolated from healthy Sprague Dawley rats; assay: Unloaded shortening contractility of healthy isolated cardiomyocytes; assay type: cell-based; settings: healthy rat cardiomyocytes
Experimental: FIG. 13: Dose-dependent modest improvement in contraction and relaxation kinetics during unloaded shortening upon VASH inhibition in primary cardiomyocytes isolated from healthy Sprague Dawley rats. A) Resting sarcomere length, B) fractional shortening, C) contraction time and D) relaxation time in healthy isolated rat cardiomyocytes. n=50-60 myocytes per group from N=3 Sprague Dawley rats. One-way ANOVA.
as §1

[4] = tested on: primary cardiomyocytes isolated from ZSF1-Lean or ZSF1 Obese rats; assay: Cardiomyocyte stretch longitudinal stiffness; assay type: cell-based, rat; settings: 10% strain
Experimental: FIG. 18: Reduced longitudinal stiffness upon VASH inhibition in primary cardiomyocytes isolated from ZSF1-Lean or ZSF1 Obese rats. A) Diastolic Stiffness (elastic modulus at the initial time of peak strain) upon a 10%, 200 ms strain along the long-axis of an isolated cardiomyocyte; B) Stead state stiffness upon strain and hold, and C) stress relaxation (indicator of viscoelasticity) in ZSF1-Lean and Obese cardiomyocytes.
Either freshly isolated or cultured myocytes were diluted to a sparse density (~10×) into a large (22×50 mm) glass bottom petri dish coated with BSA to prevent myocyte adhesion with Normal Tyrodes solution. A small aliquot of Myotak™ was freshly thawed and a 1.5 uL droplet was placed in a dry area of the petri dish and allowed to polymerize (2-3 min). When the droplet had become “tacky” laser etched glass rods (Ion Optix LLC) were lowered into the solution several times to create a thin coating of Myotak which was allowed to dry for 90 seconds before the probes were submersed into the cell-containing bath. […] The Myostretcher apparatus (Ion Optix LLC) was used to stretch myocytes by roughly 10% over either a 200 ms (diastolic) or 5 s (slow) interval while force and sarcomere length were recorded using the Ion Wizard software and MyoCam imaging system (live FFT). […]

For `O=C(O)CCC[C@H](NC(=O)[C@H]1O[C@@H]1C(=O)C[C@@H](Cc1ccc(OCc2ccccc2)cc1)C(=O)O)C(=O)NCCc1ccccc1` [SVC_01], the “contraction and relaxation kinetics” value [1] was “Both contraction and relaxation kinetics were improved”, the “detyrosinated tubulin in ZSF1 cardiomyocytes” value [2] was “virtual elimination of detyrosinated microtubule; also recorded: significant reduction of tubulin detyrosination” and the tyrosinated microtubule network [2] was “maintained tyrosinated microtubule network”. The “contraction and relaxation times” value [3] was “dose-dependent and statistically significant improvements” and the viscoelastic longitudinal stiffness [4] was “viscoelastic longitudinal stiffness is reduced”.
